Source: ChEMBL document CHEMBL3885861, “Open TG-GATES”

Species on record: Rattus norvegicus
Experiment: Open TG-GATES - Regimen: Single
Type: toxicity, organism-based, Sprague-Dawley
Parameters: regimen Single, gender Male, age 6 weeks
Conditions: in vivo, po, 30 mg/kg, route gavage, dose level Low; for APTT / Bas / Eos / Fbg / Hb / Ht / Lym / MCHC / MCV / Mono / Neu / PT / Plat / RBC / Ret / WBC: tissue Blood; for KIDNEY_L / KIDNEY_R / KIDNEY_TOTAL: tissue Kidney; for LIVER: tissue Liver; for ALP / ALT / AST / BUN / CRE / Ca / Cl / DBIL / GLC / IP / K / LDH / Na / PL / RALB / TBIL / TC / TG / TP / gamma-GTP: tissue Plasma

CS(=O)(=O)Nc1ccc([N+](=O)[O-])cc1Oc1ccccc1 [NIMESULIDE]
TERMINAL_BW (3 h): 200.4 g
APTT (3 h): 16.6 s
Bas (3 h): 0%
Eos (3 h): 1%
Fbg (3 h): 231 mg/dL
Hb (3 h): 13.1 g/dL
Ht (3 h): 39.1%
Lym (3 h): 80.8%
MCHC (3 h): 33.6%
MCV (3 h): 63.4 fL
Mono (3 h): 5%
Neu (3 h): 13.4%
PT (3 h): 12.5 s
Plat (3 h): 127.7 x10_4/uL
RBC (3 h): 616.4 x10_4/ul
Ret (3 h): 11.7%
WBC (3 h): 116.6 x10_2/uL
KIDNEY_L (3 h): 0.9 g
KIDNEY_R (3 h): 0.9 g
KIDNEY_TOTAL (3 h): 1.8 g
LIVER (3 h): 9 g
ALP (3 h): 803 IU/L
ALT (3 h): 39.6 IU/L
AST (3 h): 69.8 IU/L
BUN (3 h): 16.6 mg/dL
CRE (3 h): 0.6 mg/dL
Ca (3 h): 10.9 mg/dL
Cl (3 h): 107.6 meq/L
DBIL (3 h): 0.064 mg/dL
GLC (3 h): 208.4 mg/dL
IP (3 h): 9.2 mg/dL
K (3 h): 5 meq/L
LDH (3 h): 106 IU/L
Na (3 h): 141.2 meq/L
PL (3 h): 134.4 mg/dL
RALB (3 h): 3.7 g/dL
TBIL (3 h): 0.3 mg/dL
TC (3 h): 78.2 mg/dL
TG (3 h): 47.8 mg/dL
TP (3 h): 5.2 g/dL
gamma-GTP (3 h): 1.6 IU/L
TERMINAL_BW (6 h): 196.1 g
APTT (6 h): 17.4 s
Bas (6 h): 0%
Eos (6 h): 1%
Fbg (6 h): 201.6 mg/dL
Hb (6 h): 13.7 g/dL
Ht (6 h): 40.5%
Lym (6 h): 74.6%
MCHC (6 h): 33.8%
MCV (6 h): 65.6 fL
Mono (6 h): 9.2%
Neu (6 h): 15%
PT (6 h): 12.6 s
Plat (6 h): 111.4 x10_4/uL
RBC (6 h): 618 x10_4/ul
Ret (6 h): 10.6%
WBC (6 h): 84.5 x10_2/uL
KIDNEY_L (6 h): 0.9 g
KIDNEY_R (6 h): 0.9 g
KIDNEY_TOTAL (6 h): 1.8 g
LIVER (6 h): 8.3 g
ALP (6 h): 790 IU/L
ALT (6 h): 33 IU/L
AST (6 h): 62.2 IU/L
BUN (6 h): 13.8 mg/dL
CRE (6 h): 0.6 mg/dL
Ca (6 h): 10.7 mg/dL
Cl (6 h): 106.6 meq/L
DBIL (6 h): 0.054 mg/dL
GLC (6 h): 200 mg/dL
IP (6 h): 10.2 mg/dL
K (6 h): 5 meq/L
LDH (6 h): 86.8 IU/L
Na (6 h): 139.8 meq/L
PL (6 h): 119.6 mg/dL
RALB (6 h): 3.7 g/dL
TBIL (6 h): 0.4 mg/dL
TC (6 h): 68 mg/dL
TG (6 h): 56.6 mg/dL
TP (6 h): 5.2 g/dL
gamma-GTP (6 h): 1.2 IU/L
TERMINAL_BW (9 h): 200.7 g
APTT (9 h): 16.7 s
Bas (9 h): 0%
Eos (9 h): 0.6%
Fbg (9 h): 207.8 mg/dL
Hb (9 h): 13.2 g/dL
Ht (9 h): 39.5%
Lym (9 h): 81.4%
MCHC (9 h): 33.5%
MCV (9 h): 66.3 fL
Mono (9 h): 8.2%
Neu (9 h): 10%
PT (9 h): 12.3 s
Plat (9 h): 111.8 x10_4/uL
RBC (9 h): 596.2 x10_4/ul
Ret (9 h): 11%
WBC (9 h): 78.5 x10_2/uL
KIDNEY_L (9 h): 1 g
KIDNEY_R (9 h): 1 g
KIDNEY_TOTAL (9 h): 1.9 g
LIVER (9 h): 8.4 g
ALP (9 h): 888.4 IU/L
ALT (9 h): 30.8 IU/L
AST (9 h): 61 IU/L
BUN (9 h): 15 mg/dL
CRE (9 h): 0.5 mg/dL
Ca (9 h): 10.6 mg/dL
Cl (9 h): 108 meq/L
DBIL (9 h): 0.014 mg/dL
GLC (9 h): 201 mg/dL
IP (9 h): 10.2 mg/dL
K (9 h): 4.9 meq/L
LDH (9 h): 99 IU/L
Na (9 h): 139.4 meq/L
PL (9 h): 135.8 mg/dL
RALB (9 h): 3.9 g/dL
TBIL (9 h): 0.4 mg/dL
TC (9 h): 78.2 mg/dL
TG (9 h): 41 mg/dL
TP (9 h): 5.3 g/dL
gamma-GTP (9 h): 1.4 IU/L
TERMINAL_BW (24 h): 212.5 g
APTT (24 h): 17.2 s
Bas (24 h): 0%
Eos (24 h): 1.2%
Fbg (24 h): 199.2 mg/dL
Hb (24 h): 13.6 g/dL
Ht (24 h): 40.7%
Lym (24 h): 71.2%
MCHC (24 h): 33.4%
MCV (24 h): 63.8 fL
Mono (24 h): 8.2%
Neu (24 h): 19.4%
PT (24 h): 11.7 s
Plat (24 h): 109.8 x10_4/uL
RBC (24 h): 638.4 x10_4/ul
Ret (24 h): 10.3%
WBC (24 h): 124.8 x10_2/uL
KIDNEY_L (24 h): 0.9 g
KIDNEY_R (24 h): 1 g
KIDNEY_TOTAL (24 h): 1.9 g
LIVER (24 h): 10.6 g
ALP (24 h): 968.4 IU/L
ALT (24 h): 44 IU/L
AST (24 h): 68.8 IU/L
BUN (24 h): 19.2 mg/dL
CRE (24 h): 0.6 mg/dL
Ca (24 h): 10.8 mg/dL
Cl (24 h): 106 meq/L
DBIL (24 h): 0.012 mg/dL
GLC (24 h): 190.6 mg/dL
IP (24 h): 7.6 mg/dL
K (24 h): 4.9 meq/L
LDH (24 h): 99.2 IU/L
Na (24 h): 140.2 meq/L
PL (24 h): 151.6 mg/dL
RALB (24 h): 4 g/dL
TBIL (24 h): 0.3 mg/dL
TC (24 h): 81 mg/dL
TG (24 h): 90 mg/dL
TP (24 h): 5.5 g/dL
gamma-GTP (24 h): 2 IU/L
